Structures are written as SMILES.

One experiment concerns the target T1, Human recombinant MMP-2 (Homo sapiens, UniProt P08253).
T1 construct: made in house; host or cells: MMP-2-transfected p2AHT2 cells
T1 sequence (P08253 110-660): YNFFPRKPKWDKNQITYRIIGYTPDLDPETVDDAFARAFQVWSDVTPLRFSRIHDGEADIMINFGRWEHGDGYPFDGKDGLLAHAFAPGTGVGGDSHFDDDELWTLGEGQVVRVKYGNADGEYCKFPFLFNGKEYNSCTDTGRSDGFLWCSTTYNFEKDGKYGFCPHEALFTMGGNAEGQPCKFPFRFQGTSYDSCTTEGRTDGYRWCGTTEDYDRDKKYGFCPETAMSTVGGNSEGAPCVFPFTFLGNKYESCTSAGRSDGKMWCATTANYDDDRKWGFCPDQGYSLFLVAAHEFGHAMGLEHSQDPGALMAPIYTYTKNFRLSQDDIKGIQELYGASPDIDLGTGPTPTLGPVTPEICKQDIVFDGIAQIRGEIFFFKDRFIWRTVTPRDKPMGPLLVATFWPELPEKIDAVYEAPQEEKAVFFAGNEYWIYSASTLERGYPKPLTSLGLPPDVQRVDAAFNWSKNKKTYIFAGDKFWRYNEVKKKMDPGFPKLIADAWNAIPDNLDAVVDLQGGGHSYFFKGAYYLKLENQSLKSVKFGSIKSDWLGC
Put plainly: In vitro MMP inhibition, Ki determination (fluorogenic substrate II). The format is biochemical. The conditions noted are these: value in parentheses.

The next experiment has as its target T2, Human recombinant MMP-13 (Homo sapiens, UniProt P45452).
T2 construct: made in house; host or cells: baculovirus / insect cells
Described as above. The format is biochemical. To be noted: value in parentheses. The procedure, abridged:
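Baculovirus-expressed proenzyme, APMA-activated; 4 μM fluorogenic MCA/Dpa peptide substrate (II), at or below Km, in Tris buffer pH 7.5 with CaCl2, 1 hr at room temperature. Fluorescence at 330/420 nm; Ki from non-linear regression with Morrison's equation, not corrected for substrate.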

Broadly, the Ki is the equilibrium dissociation constant of an inhibitor or competing ligand from its target. `O=C(NCCSc1ccc(S(=O)(=O)C2(C(=O)NO)CCN(C3CC3)CC2)cc1)c1cc2ccccc2o1` [Example 542]: the Ki is 234 nM on Human recombinant MMP-2 and 0.86 nM on Human recombinant MMP-13.

Take `COCCN1CCC(C(=O)NO)(S(=O)(=O)c2ccc(OCCc3ccc(-c4ccc(C#N)cc4)cc3)cc2)CC1` [Example 543]: the Ki at Human recombinant MMP-2 was 124 nM; at Human recombinant MMP-13 it was 0.23 nM.

In the case of `COCCN1CCC(C(=O)NO)(S(=O)(=O)c2ccc(OCCc3cccc(-c4ccc(F)cc4)c3)cc2)CC1` [Example 544], the Ki was determined as 302 nM on Human recombinant MMP-2 and 0.898 nM on Human recombinant MMP-13.

As to `COCCN1CCC(C(=O)NO)(S(=O)(=O)c2ccc(OCCc3cccc(-c4cccc(F)c4)c3)cc2)CC1` [Example 545], the results for the inhibition constant Ki at Human recombinant MMP-2 and on Human recombinant MMP-13 were 310 nM and 1.11 nM, respectively.

Regarding `COCCN1CCC(C(=O)NO)(S(=O)(=O)c2ccc(OCCc3cccc(-c4ccc(F)cc4F)c3)cc2)CC1` [Example 546], the inhibition constant Ki at Human recombinant MMP-2 was determined as 426 nM; on Human recombinant MMP-13 it was 1.06 nM.

Regarding `COCCN1CCC(C(=O)NO)(S(=O)(=O)c2ccc(OCCc3cccc(-c4ccc(Cl)cc4)c3)cc2)CC1` [Example 547], the Ki on Human recombinant MMP-2 is 727 nM; on Human recombinant MMP-13, 2.28 nM.

Consider `COCCN1CCC(C(=O)NO)(S(=O)(=O)c2ccc(OCCc3cccc(-c4ccccn4)c3)cc2)CC1` [Example 548], for which the Ki was determined as 1.58 nM on Human recombinant MMP-2 and 0.38 nM at Human recombinant MMP-13.

Regarding `COCCN1CCC(C(=O)NO)(S(=O)(=O)c2ccc(OCCc3cccc(-c4ccc(F)c(F)c4)c3)cc2)CC1` [Example 549], the inhibitory constant (Ki) on Human recombinant MMP-2 was 504 nM; on Human recombinant MMP-13, 1.87 nM.

With `CCCc1ccc(COc2ccc(S(=O)(=O)C3(C(=O)NO)CCOCC3)cc2)cn1` [Example 550], the Ki at Human recombinant MMP-2 turned out to be 5.49 nM; at Human recombinant MMP-13, 0.52 nM.

For the compound `CCCCc1ccc(COc2ccc(S(=O)(=O)C3(C(=O)NO)CCOCC3)cc2)cn1` [Example 551], the inhibition constant (Ki) at Human recombinant MMP-2 was found to be 5.07 nM; on Human recombinant MMP-13, 0.62 nM.

For `CCc1ccc(COc2ccc(S(=O)(=O)C3(C(=O)NO)CCOCC3)cc2)cn1` [Example 552], the Ki at Human recombinant MMP-2 is 4.94 nM; at Human recombinant MMP-13, 1.78 nM.

As for `COCCN1CCC(C(=O)NO)(S(=O)(=O)c2ccc(OCCNC(=O)c3cc4ccccc4o3)cc2)CC1` [Example 553], the Ki on Human recombinant MMP-2 came out at 7.8 nM; at Human recombinant MMP-13, 0.259 nM.

Turning to `O=C(NO)C1(S(=O)(=O)c2ccc(OCCOc3cncnc3)cc2)CCOCC1` [Example 554], the values for the inhibition constant (Ki) on Human recombinant MMP-2 and at Human recombinant MMP-13 were 61.3 nM and 14.5 nM, respectively.

Consider `O=C(NO)C1(S(=O)(=O)c2ccc(OCCCOCc3ccncc3)cc2)CCOCC1` [Example 555], for which the Ki came out at 3.38 nM at Human recombinant MMP-2 and 0.261 nM at Human recombinant MMP-13.

For `O=C(NO)C1(S(=O)(=O)c2ccc(OCCc3ccccn3)cc2)CCOCC1` [Example 556], the figures for the Ki at Human recombinant MMP-2 and at Human recombinant MMP-13 were 68.1 nM and 53.2 nM, respectively.

As for `O=C(NO)C1(S(=O)(=O)c2ccc(OCCc3cccnc3)cc2)CCOCC1` [Example 557], the Ki was determined as 6.46 nM on Human recombinant MMP-2 and 3.68 nM on Human recombinant MMP-13.

`O=C(NO)C1(S(=O)(=O)c2ccc(OCCCOc3cncnc3)cc2)CCOCC1` [Example 559]: the inhibition constant (Ki) at Human recombinant MMP-2 worked out at 11.7 nM; on Human recombinant MMP-13, 1.51 nM.

Regarding `O=C(NO)C1(S(=O)(=O)c2ccc(OCCCOc3cccnc3)cc2)CCOCC1` [Example 560], the Ki at Human recombinant MMP-2 came to 10.3 nM; on Human recombinant MMP-13, 0.616 nM.

For the compound `O=C(NCCOc1ccc(S(=O)(=O)C2(C(=O)NO)CCOCC2)cc1)c1c[nH]c2ccccc12` [Example 562], the inhibitory constant (Ki) on Human recombinant MMP-2 is 241 nM; on Human recombinant MMP-13, 2.97 nM.

Consider `O=C(NCCSc1ccc(S(=O)(=O)C2(C(=O)NO)CCOCC2)cc1)c1nc2ccccc2s1` [Example 598], for which the Ki is 599 nM at Human recombinant MMP-2 and 0.27 nM on Human recombinant MMP-13.

Turning to `C#Cc1ccc(-c2cccc(CCCOc3ccc(S(=O)(=O)C4(C(=O)NO)CCN(CCOC)CC4)cc3)c2)cc1` [Example 646], the inhibitory constant (Ki) is 289 nM on Human recombinant MMP-2 and 0.16 nM at Human recombinant MMP-13.

For the origin of these results see patent US20040024024A1, “Aromatic sulfone hydroxamates and their use as protease inhibitors” (priority 2001, published 2004).
